Assay results reported in ChEMBL document CHEMBL1126533, “Synthesis of a potential photoaffinity labelling reagent for HIV-1 reverse transcriptase” (Bioorg Med Chem Lett, 1993).

Tests used:
MT4 [1] = assay: Effective concentration required to achieve 50% protection of MT-4 cells against the cytopathic effect of HIV-1; assay type: functional, cell-based; conditions: Homo sapiens
MT4 [2] = assay: Cytotoxic concentration required to reduce viability of mock-infected MT-4 cells by 50%; assay type: functional; conditions: Homo sapiens

| Compound | EC50 (MT4 [1]) | CC50 (MT4 [2]) |
| --- | --- | --- |
| CCOCn1c(Cc2cccc(O)c2)c(CC)c(=O)[nH]c1=O | 0.4 µM | 201 µM |
| CCOCn1c(C(OC(C)=O)c2cccc([N+](=O)[O-])c2)c(CC)c(=O)[nH]c1=O (stereo not drawn) | 29 µM | 283 µM |
| CCOCn1c(Sc2ccccc2)c(CC)c(=O)[nH]c1=O | 0.018 µM | 197 µM |
| CCOCn1c(Cc2cccc(N)c2)c(CC)c(=O)[nH]c1=O | 0.14 µM | 297 µM |
| Cc1c(Sc2ccccc2)n(COCCO)c(=O)[nH]c1=O [HEPT] |  | 740 µM |
| CCOCn1c(Cc2cccc(N=[N+]=[N-])c2)c(CC)c(=O)[nH]c1=O | 0.011 µM | 117 µM |
| CCOCn1c(C(=O)c2cccc([N+](=O)[O-])c2)c(CC)c(=O)[nH]c1=O | 0.21 µM | 232 µM |
